What was measured:
[1] = system: HepG2; experiment: drug sensitivity score (DSS) for viability; higher = more toxic; extreme values may be limits of the assay; details: 72 h
[2] = system: Vero E6; experiment: as above; details: 72 h
[3] = system: Caco-2; experiment: as above; details: 72 h
[4] = system: Calu-3; experiment: as above; details: 72 h
[5] = system: U2OS; experiment: as above; details: 72 h
[6] = system: A549-ACE2 infected with SARS-CoV-2; experiment: SARS-CoV-2 infection rate relative to DMSO; higher = more infection; details: 24 h
[7] = system: A549-ACE2; experiment: phospholipidosis EC50; higher = less potent phospholipidosis inducer
[8] = system: A549-ACE2; experiment: drug-induced phospholipidosis relative to tamoxifen; higher = more phospholipidosis
[9] = system: HepG2; experiment: cell viability relative to DMSO; higher = less toxic; details: 72 h
[10] = system: Vero E6; experiment: as above; details: 72 h
[11] = system: Caco-2; experiment: as above; details: 72 h
[12] = system: Calu-3; experiment: as above; details: 72 h
[13] = system: U2OS; experiment: as above; details: 72 h
[14] = system: A549-ACE2 infected with SARS-CoV-2; experiment: cell count relative to DMSO; higher = less toxic; details: 24 h
[15] = system: A549-ACE2 infected with SARS-CoV-2; experiment: morphology score (similarity to uninfected cells); higher = more like uninfected cells; details: 24 h
[16] = system: HepG2; experiment: relative viability EC50 (midpoint between 100% and the lowest measured viability); higher = less toxic; details: 72 h
[17] = system: Vero E6; experiment: as above; details: 72 h
[18] = system: Caco-2; experiment: as above; details: 72 h
[19] = system: Calu-3; experiment: as above; details: 72 h
[20] = system: U2OS; experiment: as above; details: 72 h

Cc1cc(Nc2ncc(Cl)c(Nc3ccccc3S(=O)(=O)C(C)C)n2)c(OC(C)C)cc1C1CCNCC1 [ceritinib]
Details	drug sensitivity score	relative viability EC50 [µM]
[1]	9.7	–
[2]	5.2	–
[3]	7.7	–
[4]	7.6	–
[5]	7.5	–
[16]	–	1.44
[17]	–	2.78
[18]	–	1.82
[19]	–	2.15
[20]	–	2.01

Details	SARS-CoV-2 infection rate [%]	cell count [%]	cell viability [%]	morphology score	phospholipidosis EC50 [µM]
[6], 0.1 µM	110	–	–	–	–
[6], 0.3 µM	96	–	–	–	–
[6], 1 µM	65	–	–	–	–
[6], 3 µM	44	–	–	–	–
[7], 24 h	–	–	–	–	2.94
[7], 48 h	–	–	–	–	1.79
[9], 1 nM	–	–	94.5	–	–
[9], 10 nM	–	–	91.3	–	–
[9], 100 nM	–	–	106	–	–
[9], 1000 nM	–	–	71.4	–	–
[9], 10000 nM	–	–	0.2	–	–
[10], 1 nM	–	–	99.4	–	–
[10], 10 nM	–	–	101	–	–
[10], 100 nM	–	–	97.9	–	–
[10], 1000 nM	–	–	95.9	–	–
[10], 10000 nM	–	–	17	–	–
[11], 1 nM	–	–	99.3	–	–
[11], 10 nM	–	–	88.1	–	–
[11], 100 nM	–	–	107	–	–
[11], 1000 nM	–	–	83.7	–	–
[11], 10000 nM	–	–	10.1	–	–
[12], 1 nM	–	–	102	–	–
[12], 10 nM	–	–	108	–	–
[12], 100 nM	–	–	102	–	–
[12], 1000 nM	–	–	87.5	–	–
[12], 10000 nM	–	–	0.5	–	–
[13], 1 nM	–	–	97.7	–	–
[13], 10 nM	–	–	92.8	–	–
[13], 100 nM	–	–	97.3	–	–
[13], 1000 nM	–	–	86.2	–	–
[13], 10000 nM	–	–	5.7	–	–
[14], 0.1 µM	–	104	–	–	–
[14], 0.3 µM	–	100	–	–	–
[14], 1 µM	–	97	–	–	–
[14], 3 µM	–	90	–	–	–
[15], 0.1 µM	–	–	–	0.01	–
[15], 0.3 µM	–	–	–	0.04	–
[15], 1 µM	–	–	–	0.56	–
[15], 3 µM	–	–	–	0.69	–

drug-induced phospholipidosis [%], [8]
Details	0.3 µM	0.833333 µM	3.33333 µM	6.66667 µM	10 µM	30 µM
24 h	9.71	10.9	62	78.4	87.3	66.3
48 h	12.5	7.38	84.3	87.6	93	69.7
72 h	11.3	5.24	83.1	–	–	–

CN1CCC[C@@H]1CCO[C@](C)(c1ccccc1)c1ccc(Cl)cc1 [clemastine]
Details	drug sensitivity score	relative viability EC50 [µM]
[1]	1.2	–
[2]	0	–
[3]	0	–
[4]	0.8	–
[5]	0	–
[16]	–	> 10
[17]	–	> 10
[18]	–	> 10
[20]	–	> 10

Details	SARS-CoV-2 infection rate [%]	cell count [%]	cell viability [%]	morphology score	phospholipidosis EC50 [µM]
[6], 0.3 µM	100	–	–	–	–
[6], 3 µM	43	–	–	–	–
[6], 10 µM	32	–	–	–	–
[6], 30 µM	21	–	–	–	–
[7], 24 h	–	–	–	–	3.92
[7], 48 h	–	–	–	–	4.81
[7], 72 h	–	–	–	–	4.96
[9], 1 nM	–	–	108	–	–
[9], 10 nM	–	–	95.6	–	–
[9], 100 nM	–	–	104	–	–
[9], 1000 nM	–	–	96.5	–	–
[9], 10000 nM	–	–	78.5	–	–
[10], 1 nM	–	–	102	–	–
[10], 10 nM	–	–	96.5	–	–
[10], 100 nM	–	–	96.8	–	–
[10], 1000 nM	–	–	95.6	–	–
[10], 10000 nM	–	–	96.3	–	–
[12], 1 nM	–	–	96.8	–	–
[12], 10 nM	–	–	101	–	–
[12], 100 nM	–	–	91.8	–	–
[12], 1000 nM	–	–	105	–	–
[12], 10000 nM	–	–	73.9	–	–
[13], 1 nM	–	–	95.4	–	–
[13], 10 nM	–	–	101	–	–
[13], 100 nM	–	–	96.1	–	–
[13], 1000 nM	–	–	103	–	–
[13], 10000 nM	–	–	96.7	–	–
[14], 0.3 µM	–	99	–	–	–
[14], 3 µM	–	120	–	–	–
[14], 10 µM	–	123	–	–	–
[14], 30 µM	–	104	–	–	–
[15], 0.3 µM	–	–	–	0.04	–
[15], 3 µM	–	–	–	0.8	–
[15], 10 µM	–	–	–	0.86	–
[15], 30 µM	–	–	–	0.52	–

drug-induced phospholipidosis [%], [8]
Details	0.3 µM	0.833333 µM	3.33333 µM	6.66667 µM	10 µM	30 µM
24 h	0.63	8.33	38.5	87.2	102	98.4
48 h	1.7	9.62	25.8	80.6	96.8	–
72 h	4.55	9.81	21.5	79.5	95.6	–
